# In PMC7866087, “Evaluation of Computationally Designed Peptides against TWEAK, a Cytokine of the Tumour Necrosis Factor Ligand Family” (International Journal of Molecular Sciences, 2021):
# Where “and” joins values, the source holds several entries; their conditions need not be identical. Identical values can stand only once. No end group written: not given here.
# Columns and labels:
# [1] = test system: TWEAK-Fn14 signalling pathway, BRV5 cells; test: Cell-based screening of individual peptides, gene expression microarray in TWEAK-stimulated BRV5 cells; design: species or system human; settings: 6 h; for BIRC2 mRNA expression (normalized to NARS2) / HSP90B1 mRNA expression (normalized to NARS2) / IL6 mRNA expression (normalized to NARS2) / JUN mRNA expression (normalized to NARS2) / MAP4K4 mRNA expression (normalized to NARS2) / MAPK14 mRNA expression (normalized to NARS2) / NFKB2 mRNA expression (normalized to NARS2) / TNFRSF12A mRNA expression (normalized to NARS2) / TRAF2 mRNA expression (normalized to NARS2): 450 µM
# Source text: Pool 1 and 5 were therefore deconstructed to assess the effect of individual peptides and their activity on same cell-based screening. Pools 1 and 5 were composed of peptides 45, 46, 42, 3, 49, 11, and 13; and of peptides 1, 9, 30, 35, 41, 43, 7, and 14, respectively. As before, and shown in Figure 4B, the level of expression of probe genes on TWEAK-stimulated (T) BRV5 cells is overall higher than on non-stimulated (NT) one. […] The structural model of peptides 43, 30, 35 and 49 bound to TWEAK can be seen in Figure 5 and Supplementary Materials Figures S4–S6, respectively.
# Three different cell lines were used in this study: BRV5, MDA-MB 435 (435-P), and HT29. The BRV5 is a highly metastatic brain cell line, obtained in one of our laboratories by primary culture from a brain of a nude mouse inoculated with human 435-Br1 brain metastatic cells, as previously described and used as a model to test the peptides in cell cultures. […] The triple negative 435-P cell line is a useful human breast cancer model that expresses both epithelial and melanocytic markers, and was included as the parental cell from which 435-Br1 metastatic variant was initially originated (both cell lines kindly provided by Dr Fabra at IDIBELL Institute, Hospitalet de Llobregat, Spain). Finally, HT29 human colon carcinoma cells obtained from the European Type Culture Collection (ECACC 91072201) were used as a positive control of TWEAK dependent Fn14 over-expressing cells to evaluate TWEAK-Fn14 axis of brain metastatic variants.
# Appropriate cell culture conditions were established as the controls needed in the expression of genes with and without peptides and with and without TWEAK activation, both as pools and individually (see Supplementary Materials Figure S2). The protocol started with the seeding of 125,000 cells/well in 500 µL of culture media supplemented with 10% fetal bovine serum (CM+FBS10%) in 24-well dishes for 24 h before removing FBS (CM-FBS). After overnight starvation in CM-FBS culture, different peptide treatment conditions (at final concentration of 450 µM) were established in the presence or absence of TWEAK (25 ng/mL final concentration) (Peprotech EC, Ltd., London, UK). Some cells were treated with peptides at a single, unique, initial dose (time 0) while other were treated with repeated doses to account for the effect cell-culture degradation. These include a repeated treatment every hour (i.e., […]), every two hours (time 0, 2, and 4) and every three hours (time 0 and 3)—see Supplementary Materials Figure S2 for diagrammatic depiction. At time 6 (after six hours) cells were lysed and RNA extracted for transcriptomic analyses (see next). Cell were culture for six hours as this was the time needed to achieve the highest upregulation of the TWEAK-Fn14 axis upon TWEAK treatment as shown in previous time-course RT-PCR experiments (see Figure 2).
# RNA from cells was extracted 6 h after treatments by direct lysis on the well. The RNeasy Micro kit (Qiagen, Hilden, Germany) was used to isolate total RNA from cell lysate following manufacturer’s protocols including an additional step of digestion with DNase I (Qiagen, Hilden, Germany). Total RNA concentration was measured in a NanoDrop 1000 spectrophotometer (Thermo Scientific, Waltham, MA, USA). The RNA extracted from treated and untreated cells (see above) was used as a proxy for gene expression.
# The quantitative RT-PCR was performed using Fluidigm Dynamic Array FlexSix array with the specific primers for gene expression (Delta Genes Assays, Wet lab tested on Dynamic Array IFC) designed to RefSeq for detection by pPCR EvaGreen assay (Dynamic Array FlexSix, Fluidigm Corporation). Each Flex Six IFC has a total of six independent partitions. Each partition has a 12 × 12 format (12 assay inlets and 12 sample inlets) and will be run independently as a separate experimental run. […]
# human His6-TWEAK protein = molecular target: T1, human His6-TWEAK protein (Homo sapiens, UniProt O43508); test: SPR binding of peptides to immobilized His6-TWEAK; settings: 25 °C, 1:1 Langmuir global fit, representative of at least three independent experiments
# T1 construct: purchased R&D Systems
# T1 sequence (O43508 97-249 limits assumed): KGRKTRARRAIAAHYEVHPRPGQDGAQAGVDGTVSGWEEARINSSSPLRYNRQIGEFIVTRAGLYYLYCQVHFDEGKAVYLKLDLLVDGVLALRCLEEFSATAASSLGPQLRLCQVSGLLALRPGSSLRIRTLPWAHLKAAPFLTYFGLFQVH
# Source text: SPR biosensor interaction analysis, a label-free screening approach, was used for real-time monitoring of the kinetics and affinity of peptide hits to TWEAK previously identified by cell-based screening. Peptides from pools 1 and 5 were selected both as positive (49, 30, 35 and 43) and negative hits (1 and 42). For our purposes, TWEAK was chosen as ligand, while peptides were chosen as analytes and passed across ligand-derivatized surface. Nitrilotriacetic acid-coated sensor chips (NTA chip) and a coupling approach that results in the capture of a His6-protein in a non-random orientation by the His6 epitope prior to direct free amine-based covalent coupling was used for histidine-tagged TWEAK immobilization.
# After chip validation, peptides selected on our cell-based microarray screening were tested.
# For each titration, a zero-analyte surface as a control was subtracted from test sensorgram as well as non-specific binding to the blank flow cell without protein; and the chip surface was regenerated in order to remove any remaining analyte. The black curves show the experimental data, while the overlaid red lines represent a global fit of the entire data set to a 1:1 Langmurian interaction model. The fitting process provided both kinetic association and dissociation rate constants (Ka and Kd), as well as equilibrium dissociation constant (KD) values indicated in Figure 6.
# Binding assays were performed at 25 °C in a Biacore 3000 instrument (GE Healthcare, Uppsala, Sweden) using nitrilotriacetic (NTA) sensor chips (GE Healthcare) and HBS-EP (0.01 M HEPES pH 7.4, 0.15 M NaCl, 3 mM EDTA, 0.005 % v/v Surfactant P20) as running buffer. Histidine-tagged human TWEAK (His6-TWEAK) protein (R&D Systems, Minneapolis, MN, USA) was covalently immobilized on the sensor surface using a capture coupling method. Briefly, the NTA surface was first stabilized by injection of regeneration buffer (20 μL EDTA-containing running buffer at 20 μL/min) followed by Ni^2+ binding to the surface (40 μL of 500 μM NiCl2 in running buffer at 20 μL/min). The carboxymethyl dextran surface was then activated for primary amine coupling by injecting coupling solution (30 μL of a 1:1 N-hydroxysuccinimide (NHS)/1-ethyl-3-[3-(dimethylamino)-propyl]carbodiimide hydrochloride (EDC) mixture at 5 μL/min). His6-TWEAK protein in pH 7.4 running buffer was then injected over the surface (60 μL of 10 μg/mL His6-TWEAK at 5 μL/min). To block uncoupled primary amines on the sensor surface, ethanolamine was passed over the surface (35 μL 1M ethanolamine at 5 μL/min). Ligand surfaces were finally conditioned with a 20 µL injection of regeneration solution containing 350 mM EDTA at 20 μL/min. Immobilization levels ranged from 1500 to 7000 resonance units (RUimmob) to test different ligand densities. A blank flow cell on the chip was created by simple injection of 20 μL of regeneration buffer injected over the sensor surface.
# Binding experiments using a monoclonal anti-TWEAK antibody (Abcam ref. 199405, Cambridge, UK) were run to ascertain adequate functionalization of the immobilized surface. Selected synthetic TWEAK-Fn14 inhibitory peptides at two-fold serial dilutions from 800 µM to 0 µM in running buffer were flown over the chip for 5 min at 35 µL/min. The dissociation phase was monitored for 10 min at the same flow rate and followed by a regeneration step with 10 µL of 18 mM NaOH. Specific binding responses for each channel were obtained by double referencing; subtracting non-specific binding to the blank flow cell plus an internal reference standard, namely buffer injection response. Each sample was run in triplicate. The experimental data were fitted to a 1:1 Langmuir binding model by the BIAevaluation software version 4.1 (GE Healthcare, Uppsala, Sweden).
# [2] = individual peptides, BRV5 + TWEAK, mean of replicate columns
# [3] = individual peptides, BRV5 + TWEAK, replicate column 1
# [4] = individual peptides, BRV5 + TWEAK, replicate column 2
# [5] = individual peptides, BRV5 + TWEAK, normalized to NARS2, listed as P3
substance,measurement,setting,value
TKGGGTADA [Peptide 3],regulation of probe genes by individual peptides,"[1]; BRV5 + TWEAK 25 ng/mL, peptides 450 µM",induced a higher level of expression of the gene
same,BIRC2 mRNA expression (normalized to NARS2),[1]; [2],0.7197
same,HSP90B1 mRNA expression (normalized to NARS2),[1]; [2],3.909
same,IL6 mRNA expression (normalized to NARS2),[1]; [2],0.003239
same,JUN mRNA expression (normalized to NARS2),[1]; [2],0.1441
same,MAP4K4 mRNA expression (normalized to NARS2),[1]; [2],0.2389
same,MAPK14 mRNA expression (normalized to NARS2),[1]; [2],0.2205
same,NFKB2 mRNA expression (normalized to NARS2),[1]; [2],0.05335
same,TNFRSF12A mRNA expression (normalized to NARS2),[1]; [2],0.03024
same,TRAF2 mRNA expression (normalized to NARS2),[1]; [2],0.009427
same,BIRC2 mRNA expression (normalized to NARS2),[1]; [3],0.6856
same,HSP90B1 mRNA expression (normalized to NARS2),[1]; [3],3.773
same,IL6 mRNA expression (normalized to NARS2),[1]; [3],0.004016
same,JUN mRNA expression (normalized to NARS2),[1]; [3],0.1498
same,MAP4K4 mRNA expression (normalized to NARS2),[1]; [3],0.2356
same,MAPK14 mRNA expression (normalized to NARS2),[1]; [3],0.2165
same,NFKB2 mRNA expression (normalized to NARS2),[1]; [3],0.05516
same,TNFRSF12A mRNA expression (normalized to NARS2),[1]; [3],0.03211
same,TRAF2 mRNA expression (normalized to NARS2),[1]; [3],0.009734
same,BIRC2 mRNA expression (normalized to NARS2),[1]; [4],0.7537
same,HSP90B1 mRNA expression (normalized to NARS2),[1]; [4],4.045
same,IL6 mRNA expression (normalized to NARS2),[1]; [4],0.002462
same,JUN mRNA expression (normalized to NARS2),[1]; [4],0.1383
same,MAP4K4 mRNA expression (normalized to NARS2),[1]; [4],0.2421
same,MAPK14 mRNA expression (normalized to NARS2),[1]; [4],0.2245
same,NFKB2 mRNA expression (normalized to NARS2),[1]; [4],0.05153
same,TNFRSF12A mRNA expression (normalized to NARS2),[1]; [4],0.02838
same,TRAF2 mRNA expression (normalized to NARS2),[1]; [4],0.00912
same,BIRC2 expression Z-Score,[1]; [5],1.1157 and 1.116
same,HSP90B1 expression Z-Score,[1]; [5],2.9702 and 2.97
same,IL6 expression Z-Score,[1]; [5],1.1687 and 1.169
same,JUN expression Z-Score,[1]; [5],0.5369
same,MAP4K4 expression Z-Score,[1]; [5],1.3444 and 1.344
same,MAPK14 expression Z-Score,[1]; [5],0.3511
same,NFKB2 expression Z-Score,[1]; [5],1.2258 and 1.226
same,TNFRSF12A expression Z-Score,[1]; [5],1.1044 and 1.104
same,TRAF2 expression Z-Score,[1]; [5],-0.4866
TTDGSTGDDLQA-NH2 [Peptide 43],kon,"human His6-TWEAK protein; HBS-EP pH 7.4, Biacore 3000, NTA chip, read-out: ka",20.5 M⁻¹ s⁻¹
same,Kd,"human His6-TWEAK protein; figure 6, HBS-EP pH 7.4, 6.25 µM to 800 µM peptide",173 µM
